This assay relates to P388 leukemia ip, CD2F1 mice, survival T/C. Kind of assay: NCI In Vivo Anticancer Drug Screen. Data for tumor model P388 Leukemia (intraperitoneal) in CD2F1 (CDF1) mice. The conditions noted are these: endpoint: median survival time, higher = longer survival. The method in brief:
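Mice carrying the transplanted tumor received test compound or vehicle. Survival was recorded in each group, and the value is the treated-group measurement divided by that of the vehicle-treated control group.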

Setting [1] is: dose: 50.0 mg/kg/injection, schedule: Q01DX009 (ip), vehicle: saline with Tween-80.
The mark [2] stands for this setting: dose: 100.0 mg/kg/injection, schedule: Q01DX009 (ip), vehicle: saline with Tween-80.
Setting [3] is: dose: 50.0 mg/kg/injection, schedule: Q01DX005 (ip), vehicle: saline with Tween-80.
The mark [4] stands for this setting: dose: 100.0 mg/kg/injection, schedule: Q01DX005 (ip), vehicle: saline with Tween-80.
[5] abbreviates: dose: 200.0 mg/kg/injection, schedule: Q01DX005 (ip), vehicle: saline with Tween-80.
The mark [6] stands for this setting: dose: 50.0 mg/kg/injection, schedule: Q01DX009 (ip), vehicle: saline.
Where [7] appears, read: dose: 100.0 mg/kg/injection, schedule: Q01DX009 (ip), vehicle: saline.
Where [8] appears, read: dose: 200.0 mg/kg/injection, schedule: Q01DX009 (ip), vehicle: saline.
[9] abbreviates: dose: 200.0 mg/kg/injection, schedule: Q01DX009 (ip), vehicle: saline with Tween-80.

“And” between values parts separate entries of the source, which are not always exact repeats. Identical values can stand only once. Inconclusive results and toxic doses are left out. Peptide text beside a SMILES is read from it. * marks the point of attachment. Cbz = O=C(OCc1ccccc1)*

Take `CC(=O)c1cc[n+](Cc2cc3ccccc3nc2Br)cc1`: the T/C by setting is: (dose: 12.5 mg/kg/injection, schedule: Q04DX002 (ip), vehicle: saline) 101 % of control; (dose: 25.0 mg/kg/injection, schedule: Q04DX002 (ip), vehicle: saline) 102 % of control; (dose: 50.0 mg/kg/injection, schedule: Q04DX002 (ip), vehicle: saline) 101 % of control.
Consider `O=C(N[C@H](CO)[C@H]1CC(Br)=NO1)C(Cl)(Cl)Cl`, for which the T/C (dose: 11.25 mg/kg/injection, schedule: Q01DX005 (ip), vehicle: distilled water + Tween-80) was 102 % of control; the T/C (dose: 22.5 mg/kg/injection, schedule: Q01DX005 (ip), vehicle: distilled water + Tween-80) was 105 % of control; the T/C (dose: 45.0 mg/kg/injection, schedule: Q01DX005 (ip), vehicle: distilled water + Tween-80) was 107 % of control; the T/C (dose: 90.0 mg/kg/injection, schedule: Q01DX005 (ip), vehicle: distilled water + Tween-80) was 112 % of control.
Regarding `Cc1ccc(S(=O)(=O)OC(=C(F)F)[Si](C)(C)C)cc1`, the T/C by setting is: under setting [1], 102 % of control; under setting [2], 94 % of control.
Turning to `CC(C)(C)C1=CS(=O)(=O)C1`, the T/C (dose: 1.56 mg/kg/injection, schedule: Q01DX001 (ip), vehicle: saline with Tween-80) was 103 % of control and the T/C (dose: 3.12 mg/kg/injection, schedule: Q01DX001 (ip), vehicle: saline with Tween-80) is 102 % of control.
As to `CCCCCCCC/C=C\CCCCCCCCN1CC(C(=O)[O][Pb]([CH2]C)([CH2]C)[CH2]C)CC1=O` (stereo not drawn), the T/C is 105 % of control (dose: 0.75 mg/kg/injection, schedule: Q01DX009 (ip), vehicle: saline with Tween-80); 105 % of control (dose: 1.5 mg/kg/injection, schedule: Q01DX009 (ip), vehicle: saline with Tween-80); 115 % of control (dose: 6.0 mg/kg/injection, schedule: Q01DX009 (ip), vehicle: saline with Tween-80).
`Nc1ccc2c(C(F)(F)F)cc(=O)oc2c1`: the T/C under setting [3] is 106 % of control, the T/C under setting [4] was 99 % of control and the T/C under setting [5] is 94 % of control.
Take `[F][Sn]([F])([c]1ccccc1)[c]1ccccc1`: the T/C (dose: 1.56 mg/kg/injection, schedule: Q01DX009 (ip), vehicle: Klucel (hydroxypropylcellulose) (HPC)) was 196 % of control.
Turning to `N#Cc1nn(-c2ccccc2)sc1=N`, the T/C reads like this: (dose: 3.13 mg/kg/injection, schedule: Q01DX009 (ip), vehicle: other) 104 % of control; (dose: 6.25 mg/kg/injection, schedule: Q01DX009 (ip), vehicle: other) 110 % of control; (dose: 12.5 mg/kg/injection, schedule: Q01DX009 (ip), vehicle: other) 100 % of control; (dose: 25.0 mg/kg/injection, schedule: Q01DX009 (ip), vehicle: other) 94 % of control; (dose: 50.0 mg/kg/injection, schedule: Q01DX009 (ip), vehicle: other) 88 % of control; (dose: 100.0 mg/kg/injection, schedule: Q01DX009 (ip), vehicle: other) 88 % of control.
Turning to `CC(=O)C[n+]1cccc(C)c1Sc1ccccc1`, the T/C runs as follows: (dose: 12.5 mg/kg/injection, schedule: Q01DX005 (ip), vehicle: saline with Tween-80) 97 % of control; (dose: 25.0 mg/kg/injection, schedule: Q01DX005 (ip), vehicle: saline with Tween-80) 101 % of control; under setting [3], 108 % of control and 94 % of control.
`CN1Cc2cc(Cl)ccc2N(C)Cc2cc(Cl)ccc21`: the T/C under setting [3] is 101 % of control, the T/C under setting [4] is 90 % of control and the T/C under setting [5] was 92 % of control.
For the compound `C=C(C)[C@@]12OC3(/C=C/C=C/CCCCC)O[C@@H]1[C@@H]1[C@@H]4O[C@]4(CO)[C@@H](O)[C@]4(O)C(=O)C(C)=C[C@H]4[C@@]1(O3)[C@H](C)[C@H]2OC(=O)c1ccccc1`, the T/C reads like this: (dose: 0.1 mg/kg/injection, schedule: Q01DX009 (ip), vehicle: saline + alcohol) 120 % of control; (dose: 1.6 mg/kg/injection, schedule: Q01DX009 (ip), vehicle: saline + alcohol) 155 % of control; (dose: 0.8 micrograms/kg/injection, schedule: Q01DX009 (ip), vehicle: saline + alcohol) 101 % of control; (dose: 1.6 micrograms/kg/injection, schedule: Q01DX009 (ip), vehicle: saline + alcohol) 101 % of control; (dose: 2.3 micrograms/kg/injection, schedule: Q01DX009 (ip), vehicle: saline + alcohol) 97 % of control; (dose: 3.1 micrograms/kg/injection, schedule: Q01DX009 (ip), vehicle: saline + alcohol) 119 % of control. Besides, the T/C was 100 % of control (dose: 4.7 micrograms/kg/injection, schedule: Q01DX009 (ip), vehicle: saline + alcohol); 97 % of control (dose: 9.4 micrograms/kg/injection, schedule: Q01DX009 (ip), vehicle: saline + alcohol); 95 % of control (dose: 18.8 micrograms/kg/injection, schedule: Q01DX009 (ip), vehicle: saline + alcohol); 100 % of control (dose: 37.5 micrograms/kg/injection, schedule: Q01DX009 (ip), vehicle: saline + alcohol); 119 % of control (dose: 75.0 micrograms/kg/injection, schedule: Q01DX009 (ip), vehicle: saline + alcohol); 114 % of control (dose: 150.0 micrograms/kg/injection, schedule: Q01DX009 (ip), vehicle: saline + alcohol).
As to `CC1C2Cc3ccc(O)cc3C1(C)CCN2Cc1ccoc1` (stereo not drawn), the T/C reads like this: under setting [6], 96 % of control; under setting [7], 99 % of control.
Take `N=C(N)c1ccc(C#Cc2ccc(C(=N)N)cc2)cc1`: the T/C by setting is: (dose: 3.13 mg/kg/injection, schedule: Q01DX009 (ip), vehicle: saline with Tween-80) 94 % of control; (dose: 6.25 mg/kg/injection, schedule: Q01DX009 (ip), vehicle: saline with Tween-80) 92 % of control; (dose: 12.5 mg/kg/injection, schedule: Q01DX009 (ip), vehicle: saline with Tween-80) 95 % of control.
As to `CN(C)CCC(OC(=O)C(c1ccccc1)c1ccccc1)c1ccccc1` (stereo not drawn), the T/C runs as follows: under setting [3], 101 % of control; under setting [4], 103 % of control.
Regarding `O=c1ccc2ccc3occc(=O)c3c2o1`, the T/C runs as follows: under setting [3], 106 % of control; under setting [4], 108 % of control; under setting [5], 98 % of control.
Take `Nc1cc(S(=O)(=O)F)ccc1Cl`: the T/C reads like this: (dose: 100.0 mg/kg/injection, schedule: Q04DX003 (ip), vehicle: saline with Tween-80) 100 % of control; (dose: 200.0 mg/kg/injection, schedule: Q04DX003 (ip), vehicle: saline with Tween-80) 106 % of control.
In the case of `Cc1cc(=O)oc2cc(NCS(=O)(=O)O)ccc12`, the T/C runs as follows: (dose: 50.0 mg/kg/injection, schedule: Q01DX005 (ip), vehicle: saline) 100 % of control; (dose: 100.0 mg/kg/injection, schedule: Q01DX005 (ip), vehicle: saline) 98 % of control; (dose: 200.0 mg/kg/injection, schedule: Q01DX005 (ip), vehicle: saline) 97 % of control.
Turning to `CC(=O)Oc1cccnc1[N+](=O)[O-]`, the T/C was 103 % of control and 106 % of control (dose: 12.5 mg/kg/injection, schedule: Q01DX009 (ip), vehicle: saline); 100 % of control and 101 % of control (dose: 25.0 mg/kg/injection, schedule: Q01DX009 (ip), vehicle: saline); 102 % of control and 120 % of control and 94 % of control under setting [6]; 106 % of control and 108 % of control and 123 % of control under setting [7]; 105 % of control and 119 % of control under setting [8]; 105 % of control (dose: 400.0 mg/kg/injection, schedule: Q01DX009 (ip), vehicle: saline).
On to `CC(C)(OC(=O)NC(CC(N)=O)C(=O)O)c1ccc(N=Nc2ccccc2)cc1` (stereo not drawn), for which the T/C under setting [1] was 97 % of control, the T/C under setting [2] was 92 % of control and the T/C under setting [9] was 92 % of control.
Consider `CN1CC[C@]23c4c5ccc(O)c4O[C@H]2C(=O)CC[C@@]3(O)[C@H]1C5`, for which the T/C under setting [6] was 94 % of control, the T/C under setting [7] was 109 % of control and the T/C under setting [8] was 102 % of control.
On to `Cc1nnc2c(c(=O)n(C)c(=O)n2C)[n+]1[O-]`, for which the T/C was 105 % of control (dose: 12.5 mg/kg/injection, schedule: Q01DX001 (ip), vehicle: saline); 109 % of control (dose: 25.0 mg/kg/injection, schedule: Q01DX001 (ip), vehicle: saline); 106 % of control (dose: 50.0 mg/kg/injection, schedule: Q01DX001 (ip), vehicle: saline).
`NC(=O)C(Cc1ccccc1)NC(=O)C(Cc1ccccc1)NC(=O)C(Cc1ccccc1)NC(=O)OCc1ccccc1` (stereo not drawn) (Cbz-Phe-Phe-Phe-NH2; configuration not given here): the T/C was 91 % of control under setting [3], 97 % of control under setting [4] and 102 % of control under setting [5].
As for `CCCCC(=O)C(=O)c1ccc(O)c(C)c1O`, the T/C runs as follows: under setting [1], 96 % of control; under setting [2], 93 % of control; under setting [9], 96 % of control.

Source of the values: PubChem BioAssay AID330 (DTP/NCI, 2004).
